According to patent US20130032547A1, “STABILIZATION AND DISINFECTION OF WASTES USING HIGH ENERGY E-BEAM AND CHEMICAL OXIDANTS” (priority 2011, published 2013):
“Also recorded” adds a separate entry of the source.

Assays:
[1] = system: estrogenic activity of 17-β-estradiol (E2); human estrogen receptor; assay: Estrogenic activity, YES assay (recombinant yeast); format: cell-based, Saccharomyces cereviciae; on estrogenic activity, E2 spiked (untreated) vs treated samples (in words): test concentration or dose not given here; on reduction of estrogenic activity (in words): test concentration or dose not given here
[2] = system: Salmonella Typhimurium; assay: Re-growth of spiked Salmonella in treated biosolids (U.S. EPA method 1682, MPN); format: cell-based; conditions: for Salmonella, Plate count: Sep. 11, 2009
[3] = system: Salmonella Typhimurium; format: cell-based; on reduction (in words): test concentration or dose not given here
[4] = system: Escherichia coli (ATCC #25922); format: cell-based; on reduction (in words): test concentration or dose not given here
[5] = system: somatic coliphages (phi X 174); format: cell-based, coliphage phi X 174; further: test concentration or dose not given here
[6] = system: Poliovirus Type 1; conditions: cited from earlier work
[7] = system: fecal coliforms (E. coli); assay: Re-growth of fecal coliforms (spiked E. coli) in treated biosolids (U.S. EPA method 1680, MPN); format: cell-based; conditions: for fecal coliforms, Plate count: Sep. 11, 2009
[8] = Table 23, ClO2 + Irradiated, Oct. 5, 2009
[9] = Table 23, ClO2 + Irradiated, Sep. 18, 2009
[10] = Table 23, ClO2 + Irradiated, Sep. 25, 2009
[11] = Table 24, ClO2 + Irradiated, Oct. 5, 2009
[12] = Table 24, ClO2 + Irradiated, Sep. 18, 2009
[13] = Table 24, ClO2 + Irradiated, Sep. 25, 2009
[14] = Table 25, ClO2 + Irradiated, Oct. 5, 2009
[15] = Table 25, ClO2 + Irradiated, Sep. 18, 2009
[16] = Table 25, ClO2 + Irradiated, Sep. 25, 2009
[17] = Table 26, ClO2 + Irradiated, Oct. 5, 2009
[18] = Table 26, ClO2 + Irradiated, Sep. 18, 2009
[19] = Table 26, ClO2 + Irradiated, Sep. 25, 2009

Question: Which results are given for `[O][Cl+][O-]` [Chlorine Dioxide, chlorine dioxide]?
Answer: estrogenic activity, E2 spiked (untreated) vs treated samples (in words) [1]: no significant difference; reduction of estrogenic activity (in words) [1]: does not reduce; re-growth of Salmonella spp. (in words) [2]: no re-growth; Salmonella, Plate count ([2]; Table 23 (% total solid 0.0131, aerobic inferred), ClO2): 2.98E+08; Salmonella MPN/4 g (dry weight) [2, 8]: 2.20E+01 MPN/4 g (dry weight); Salmonella MPN/4 g (dry weight) based on 2 ml, 1 ml, 0.1 ml [2, 8]: 2.2E+00 MPN/4 g (dry weight); Salmonella MPN/ml (wet weight) [2, 8]: 0.0072 MPN/ml (wet weight); Salmonella, Plate count ([2]; Table 23, ClO2 + Irradiated): 4.43E+05; Salmonella MPN/4 g (dry weight) [2, 9]: 1.91E+02 MPN/4 g (dry weight); Salmonella MPN/4 g (dry weight) based on 2 ml, 1 ml, 0.1 ml [2, 9]: 1.9E+01 MPN/4 g (dry weight); Salmonella MPN/ml (wet weight) [2, 9]: 0.0626 MPN/ml (wet weight); Salmonella MPN/4 g (dry weight) [2, 10]: 7.15E+01 MPN/4 g (dry weight); Salmonella MPN/4 g (dry weight) based on 2 ml, 1 ml, 0.1 ml [2, 10]: 7.1E+00 MPN/4 g (dry weight); Salmonella MPN/ml (wet weight) [2, 10]: 0.0234 MPN/ml (wet weight); Salmonella MPN/4 g (dry weight) ([2]; Table 23, ClO2, Oct. 5, 2009): 7.79E+01 MPN/4 g (dry weight); Salmonella MPN/4 g (dry weight) based on 2 ml, 1 ml, 0.1 ml ([2]; Table 23, ClO2, Oct. 5, 2009): 7.8E+00 MPN/4 g (dry weight); Salmonella MPN/ml (wet weight) ([2]; Table 23, ClO2, Oct. 5, 2009): 0.0255 MPN/ml (wet weight); Salmonella MPN/4 g (dry weight) ([2]; Table 23, ClO2, Sep. 18, 2009): 4.91E+03 MPN/4 g (dry weight); Salmonella MPN/4 g (dry weight) based on 2 ml, 1 ml, 0.1 ml ([2]; Table 23, ClO2, Sep. 18, 2009): 4.9E+02 MPN/4 g (dry weight); Salmonella MPN/ml (wet weight) ([2]; Table 23, ClO2, Sep. 18, 2009): 1.6090 MPN/ml (wet weight); Salmonella MPN/4 g (dry weight) ([2]; Table 23, ClO2, Sep. 25, 2009): 3.51E+02 MPN/4 g (dry weight); Salmonella MPN/4 g (dry weight) based on 2 ml, 1 ml, 0.1 ml ([2]; Table 23, ClO2, Sep. 25, 2009): 3.5E+01 MPN/4 g (dry weight); Salmonella MPN/ml (wet weight) ([2]; Table 23, ClO2, Sep. 25, 2009): 0.1151 MPN/ml (wet weight); Salmonella, Plate count ([2]; Table 24 (% total solid 0.0312, anaerobic inferred), ClO2): 3.03E+06; Salmonella MPN/4 g (dry weight) [2, 11]: 4.41E+01 MPN/4 g (dry weight); Salmonella MPN/4 g (dry weight) based on 2 ml, 1 ml, 0.1 ml [2, 11]: 4.4E+00 MPN/4 g (dry weight); Salmonella MPN/ml (wet weight) [2, 11]: 0.0344 MPN/ml (wet weight); Salmonella, Plate count ([2]; Table 24, ClO2 + Irradiated): 3.85E+03; Salmonella MPN/4 g (dry weight) [2, 12]: 6.95E+02 MPN/4 g (dry weight); Salmonella MPN/4 g (dry weight) based on 2 ml, 1 ml, 0.1 ml [2, 12]: 7.0E+01 MPN/4 g (dry weight); Salmonella MPN/ml (wet weight) [2, 12]: 0.5422 MPN/ml (wet weight); Salmonella MPN/4 g (dry weight) [2, 13]: 8.03E+01 MPN/4 g (dry weight); Salmonella MPN/4 g (dry weight) based on 2 ml, 1 ml, 0.1 ml [2, 13]: 8.0E+00 MPN/4 g (dry weight); Salmonella MPN/ml (wet weight) [2, 13]: 0.0626 MPN/ml (wet weight); Salmonella MPN/4 g (dry weight) ([2]; Table 24, ClO2, Oct. 5, 2009): 8.03E+01 MPN/4 g (dry weight); Salmonella MPN/4 g (dry weight) based on 2 ml, 1 ml, 0.1 ml ([2]; Table 24, ClO2, Oct. 5, 2009): 8.0E+00 MPN/4 g (dry weight); Salmonella MPN/ml (wet weight) ([2]; Table 24, ClO2, Oct. 5, 2009): 0.0626 MPN/ml (wet weight); Salmonella MPN/4 g (dry weight) ([2]; Table 24, ClO2, Sep. 18, 2009): 2.06E+03 MPN/4 g (dry weight); Salmonella MPN/4 g (dry weight) based on 2 ml, 1 ml, 0.1 ml ([2]; Table 24, ClO2, Sep. 18, 2009): 2.1E+02 MPN/4 g (dry weight); Salmonella MPN/ml (wet weight) ([2]; Table 24, ClO2, Sep. 18, 2009): 1.6090 MPN/ml (wet weight); Salmonella MPN/4 g (dry weight) ([2]; Table 24, ClO2, Sep. 25, 2009): 4.46E+02 MPN/4 g (dry weight); Salmonella MPN/4 g (dry weight) based on 2 ml, 1 ml, 0.1 ml ([2]; Table 24, ClO2, Sep. 25, 2009): 4.5E+01 MPN/4 g (dry weight); Salmonella MPN/ml (wet weight) ([2]; Table 24, ClO2, Sep. 25, 2009): 0.3475 MPN/ml (wet weight); log reduction [3]: 3 log; reduction (in words) [3]: did not show any significant reduction; log reduction [4]: 4 to 5 log; log reduction (complete reduction) [4]: approximately 8 log; reduction (in words) [4]: did not exhibit any reduction; inactivation (in words) [5]: effectively eliminated; also recorded: significant reductions; time to inactivate clumped poliovirus I aggregates compared to single state viruses [6]: 2.7 times longer; re-growth of fecal coliforms (in words) [7]: no re-growth; fecal coliforms, Plate count ([7]; Table 25 (aerobic sludge inferred), ClO2): 4.27E+07; fecal coliforms MPN/4 g dry wt [7, 14]: <0.1803 MPN/4 g dry wt; fecal coliforms MPN/g dry wt [7, 14]: <0.1803 MPN/g dry wt; fecal coliforms, Plate count ([7]; Table 25, ClO2 + Irradiated): 0.00E+00; fecal coliforms MPN/4 g dry wt [7, 15]: <0.1803 MPN/4 g dry wt; fecal coliforms MPN/g dry wt [7, 15]: <0.1803 MPN/g dry wt; fecal coliforms MPN/4 g dry wt [7, 16]: <0.1803 MPN/4 g dry wt; fecal coliforms MPN/g dry wt [7, 16]: <0.1803 MPN/g dry wt; fecal coliforms MPN/4 g dry wt ([7]; Table 25, ClO2, Oct. 5, 2009): 1.37E+03 MPN/4 g dry wt; fecal coliforms MPN/g dry wt ([7]; Table 25, ClO2, Oct. 5, 2009): 3.44E+02 MPN/g dry wt; fecal coliforms MPN/4 g dry wt ([7]; Table 25, ClO2, Sep. 18, 2009): 8.49E+05 MPN/4 g dry wt; fecal coliforms MPN/g dry wt ([7]; Table 25, ClO2, Sep. 18, 2009): 2.12E+05 MPN/g dry wt; fecal coliforms MPN/4 g dry wt ([7]; Table 25, ClO2, Sep. 25, 2009): 6.47E+03 MPN/4 g dry wt; fecal coliforms MPN/g dry wt ([7]; Table 25, ClO2, Sep. 25, 2009): 1.62E+03 MPN/g dry wt; fecal coliforms, Plate count ([7]; Table 26 (anaerobic sludge inferred), ClO2): 7.26E+06; fecal coliforms MPN/4 g dry wt [7, 17]: <0.1803 MPN/4 g dry wt; fecal coliforms MPN/g dry wt [7, 17]: <0.1803 MPN/g dry wt; fecal coliforms, Plate count ([7]; Table 26, ClO2 + Irradiated): 2.14E+03; fecal coliforms MPN/4 g dry wt [7, 18]: 1.01E+03 MPN/4 g dry wt; fecal coliforms MPN/g dry wt [7, 18]: 2.53E+02 MPN/g dry wt; fecal coliforms MPN/4 g dry wt [7, 19]: <0.1803 MPN/4 g dry wt; fecal coliforms MPN/g dry wt [7, 19]: <0.1803 MPN/g dry wt; fecal coliforms MPN/4 g dry wt ([7]; Table 26, ClO2, Oct. 5, 2009): <0.1803 MPN/4 g dry wt; fecal coliforms MPN/g dry wt ([7]; Table 26, ClO2, Oct. 5, 2009): <0.1803 MPN/g dry wt; fecal coliforms MPN/4 g dry wt ([7]; Table 26, ClO2, Sep. 18, 2009): 1.02E+05 MPN/4 g dry wt; fecal coliforms MPN/g dry wt ([7]; Table 26, ClO2, Sep. 18, 2009): 2.54E+04 MPN/g dry wt; fecal coliforms MPN/4 g dry wt ([7]; Table 26, ClO2, Sep. 25, 2009): 1.67E+03 MPN/4 g dry wt; fecal coliforms MPN/g dry wt ([7]; Table 26, ClO2, Sep. 25, 2009): 4.17E+02 MPN/g dry wt

Question: For `C[C@]12CC[C@@H]3c4ccc(O)cc4CC[C@H]3[C@@H]1CC[C@@H]2O` [E2, 17-β-estradiol, reference compound], which “upper limit of the dynamic range of the YES assay (saturation)” value ([1]; E2 standards in DMSO) is on record?
Answer: 60 nM
